Laboratory results from patent US12139505B2, “Compositions useful in therapy of autophagy-related pathologies, and methods of making and using the same” (The University of Toledo, priority 2017, dated 2024).
“Also recorded” adds a separate entry of the source.

Experiments:
SH-SY5Y cells [1] = assay: Western blot for LC3-II (autophagy induction with bafilomycin-A1); assay type: cell-based, human
Procedure: (FIG. 35B). […] In a dose dependent manner with a maximum of 6 μM.
2-n-hexyl-LKE-P drug solutions in CCM from 0.1 to 100 μM were prepared as above for the viability assay except that the drug solutions contained 10 nM bafilomycin A1. For positive control: 50 nM rapamycin in CCM containing 10 nM bafilomycin A1 was used. For negative control: 1 μL of DMSO is dissolved in every 100 μL of CCM containing 10 nM bafilomycin A1. When SH-SY5Y cells were 85-90% confluent, 300,000 cells per well were seeded into 12-well plates. Cells were exposed to four concentrations of 2-n-hexyl-LKE-P, positive control and negative control for 4 hours at 37° C. in 5% CO2 in air atmosphere. Subsequently, the cells were washed with PBS, next, 0.25% Trypsin/EDTA was used to aid in detaching the cells and CCM was then added to neutralize the Trypsin/EDTA and wash the cells from the dish. Washed cells were collected in a centrifuge tube for concentration. After centrifugation at 2000 RPM for 5 minutes, the cells were re-suspended in PBS and re-centrifuged to pellets. The supernatant was then discarded and the cell pellets were frozen in −20° C. freezer. 50 μL lysis buffer (RIPA buffer plus, 1 mM sodiumorthovanadate, 5 mM β-glycerophosphate and 1:200 mammalian protease inhibitor cocktail) was added to the cells and the cells were re-suspended in the lysis buffer. […] The membranes were then ready for imaging.

PINK1^B9 flies = assay: Fly climbing assay; assay type: in vivo, Drosophila melanogaster; settings: 100 μM in media
Procedure: 2-n-hexyl-LKE-P was dissolved in DMSO and supplemented into a warm solution of minimal media (5% sucrose, 2% agarose and water, 60° C.) to a final concentration of 10, 100 and 1000 μM. Freshly eclosed adult flies were transferred to minimal media containing the drug for one day followed by the experiments. The locomotive ability of flies was assessed 10 days after eclosion via a climbing assay. 15 flies were transferred to a tube marked 17.5 cm from the bottom and a digital camera, connected directly to a PC, recorded flies as they cross the line, continuously, for two minutes. Analysis of the recorded video was done by recording the number of flies that remain above the 17.5 cm line every ten seconds. If a fly climbs back down or falls, that fly is removed from the total count at the next 10 second time point. The percentage of flies remaining above the line at the 120 second time point was recorded. The 120 second time point was chosen because it has been previously determined that this is the average amount of time required for all untreated flies to cross the 17.5 cm mark.

SH-SY5Y cells [2] = assay: Cell viability, MTS assay; assay type: cell-based, human; settings: for average cell viability: 24 hours; for toxicity to neuroblastoma cells: 0.1 to 1 μM
Procedure: Synthesized compounds were added to a 3-dram screw capped vial, followed by DMSO (ca. 5 mL) to make a 10 mM stock solution. The test stock solution was made and used on the same day. 100 μL of the 10 mM stock solution was diluted into 900 μL of DMSO (1:9 dilution) to make 1 mM stock solution. 100 μL of the 1 mM stock solution was diluted into 900 μL of DMSO (1:9 dilution) to make a 100 μM solution. 100 μL of the 100 μM stock solution was diluted into 900 µL of DMSO (1:9 dilution) to make a 10 μM stock solution. The test solutions were prepared by using the dilution ratio of 10 μL stock solutions into 990 μL (1:99 dilution) of Complete Culture Media (CCM) to afford drug solution (1% DMSO) from 0.1 to 100 μM. For positive control: 10 mg/mL of TritonX-100 is diluted in CCM. For negative control: 1 μL of DMSO is dissolved in every 100 μL of CCM.
Cells were grown in bulk in 100 mm petri dishes. On the day of use, the cell culture media was removed from the dish. SH-SY5Y cells were washed with PBS, then 0.25% Trypsin/EDTA was used to aid in detaching the cells, CCM was then added to neutralize the Trypsin/EDTA and wash the cells from the dish. Washed cells are collected in a centrifuge tube for concentration. After centrifugation at 2000 RPM for 5 minutes, the cells were re-suspended in CCM. The final concentration of cells was 5×10^3 per 100 μL The 5000 cells/100 μL solution was seeded into a clear, flat bottomed, 96-well microliter plate and incubated for 24 hours at 37° C. in 5% CO2. After 24 hours, the media was removed and replaced by 100 μL CCM containing the drug/positive/negative control and was incubated at 37° C. in a 5% CO2 for 24 hours. After this incubation period, 20 μL of MTS solution was added to each well via a multichannel pipette. The plates were shaken by hand to thoroughly mix the MTS solution into the media and incubated at 37° C. in a 5% CO2 for 4 hours. The absorbance was read at 490 nm using the Synergy Neo microplate reader.

For CCCCCCC1=C(P(=O)(O)O)N[C@H](C(=O)OCC)CS1 [2-n-hexyl-LKE-P], the “autophagy stimulation (LC3-I, LC3-II)” value (SH-SY5Y cells [1]; in the presence of bafilomycin-A1) was “stimulates autophagy in a dose dependent manner; also recorded: able to stimulate autophagy”, the “concentration of maximum autophagy stimulation” value (SH-SY5Y cells [1]; in the presence of bafilomycin-A1, 0.1 to 10 μM tested) was 6 µM and the “climbing ability of PINK1^B9 flies” value (PINK1^B9 flies) was “statistically significant improvement in the climbing ability; also recorded: significant improvement of PINK1^B9 climbing ability”. The “concentration at which toxicity begins to show” value (SH-SY5Y cells [2]) was 10 µM, the average cell viability (SH-SY5Y cells [2]; 10 μM) was 83% and the average cell viability (SH-SY5Y cells [2]; 100 μM) was 63%. For the same compound, the “toxicity to neuroblastoma cells” value (SH-SY5Y cells [2]) was “not toxic” and the “toxicity to neuroblastoma cells” value (SH-SY5Y cells [2]; listed as 2-n-heyxl-LKE-P) was “no toxicity”.
